Legend:
[1] = Calculated conditional stability constants for chelants with Cu^+2 at specified pH; type: physicochemical
Source text: (§1) However, as the pH range of the present compositions are acidic (i.e., less than 7), the log alpha value (αm) is considered to be constant and approximately negligible.

[2] = 1:1 complex, fully deprotonated chelant, 25° C., 0.1M ionic strength; cited from earlier work
[3] = 1:1 complex, fully deprotonated chelant, 25° C., 0.1M ionic strength; cited from earlier work; remark: listed apart in the source
[4] = 1:1 complex, fully deprotonated chelant, 25° C., 0.1M ionic strength; cited from earlier work; remark: listed apart in the source
[5] = Calculated conditional stability constants for chelants with Fe^+3 at specified pH
Source text: The gradual change in ligand species as pH changes can be represented using alpha (α) coefficients, defined as: [formula] […] By combining stability (K) and alpha (α) constants at a given pH, the formula below provides the effective chelating power of a chelant.

[6] = Calculated conditional stability constants for chelants with Ca^+2 at specified pH; type: physicochemical
Source text: as §1
The calculated stability constants for a range of chelants with Fe^+3, Cu^+2, and Ca^+2 are given below in Table 3: […]

Structure (SMILES)	log Conditional Stability Constant (@ pH) Cu^+2 ([1]; pH 2)	log Conditional Stability Constant (@ pH) Cu^+2 ([1]; pH 3)	log Conditional Stability Constant (@ pH) Cu^+2 ([1]; pH 4)	log Conditional Stability Constant (@ pH) Cu^+2 ([1]; pH 5)	log Conditional Stability Constant (@ pH) Cu^+2 ([1]; pH 6)	log Conditional Stability Constant (@ pH) Cu^+2 ([1]; pH 7)	log Conditional Stability Constant (@ pH) Cu^+2 ([1]; pH 8)	log Conditional Stability Constant (@ pH) Ca^+2 ([6]; pH 2)	log Conditional Stability Constant (@ pH) Ca^+2 ([6]; pH 3)	log Conditional Stability Constant (@ pH) Ca^+2 ([6]; pH 4)	log Conditional Stability Constant (@ pH) Ca^+2 ([6]; pH 5)	log Conditional Stability Constant (@ pH) Ca^+2 ([6]; pH 6)	log Conditional Stability Constant (@ pH) Ca^+2 ([6]; pH 7)	log Conditional Stability Constant (@ pH) Ca^+2 ([6]; pH 8)	log K Cu [2]	log K Fe [3]	log K Ca [4]	further results
O=P(O)(O)CN(CCN(CP(=O)(O)O)CP(=O)(O)O)CCN(CP(=O)(O)O)CP(=O)(O)O [DTPMP, diethylenetriamine penta(methylene phosphonic acid)]	−9.10	−5.10	−1.10	2.90	6.87	10.68	13.85	−21.50	−17.50	−13.50	−9.50	−5.53	−1.72	1.45	19.5	26.5	7.1	log Conditional Stability Constant (@ pH) Fe^+3 ([5]; pH 2): −2.10; log Conditional Stability Constant (@ pH) Fe^+3 ([5]; pH 3): 1.90; log Conditional Stability Constant (@ pH) Fe^+3 ([5]; pH 4): 5.90; log Conditional Stability Constant (@ pH) Fe^+3 ([5]; pH 5): 9.90; log Conditional Stability Constant (@ pH) Fe^+3 ([5]; pH 6): 13.87; log Conditional Stability Constant (@ pH) Fe^+3 ([5]; pH 7): 17.68; log Conditional Stability Constant (@ pH) Fe^+3 ([5]; pH 8): 20.85
O=C(O)CN(CCN(CC(=O)O)CC(=O)O)CC(=O)O [EDTA]	5.45	8.29	10.46	12.45	14.24	15.55	16.60	−2.65	0.19	2.36	4.35	6.14	7.45	8.50	18.78	14.3	10.65	–
O=C(O)CC(NCCNC(CC(=O)O)C(=O)O)C(=O)O (mixture of isomers) [EDDS, ethylene diamine disuccinic acid]	2.59	6.28	9.20	11.41	13.39	–	16.26	−11.11	−7.42	−4.50	−2.29	−0.13	1.36	2.56	18.35	22.0	4.58	log Conditional Stability Constant (@ pH) Fe^+3 ([5]; pH 2): 6.29; log Conditional Stability Constant (@ pH) Fe^+3 ([5]; pH 3): 9.98; log Conditional Stability Constant (@ pH) Fe^+3 ([5]; pH 4): 12.90; log Conditional Stability Constant (@ pH) Fe^+3 ([5]; pH 6): 17.09; log Conditional Stability Constant (@ pH) Fe^+3 ([5]; pH 7): 18.76; log Conditional Stability Constant (@ pH) Fe^+3 ([5]; pH 8): 19.96
O=C(O)CN(CCN(CC(=O)O)Cc1ccccc1O)Cc1ccccc1O [HBED]	–	–	–	–	–	–	–	–	–	–	–	–	–	–	9.29	39.7	9.3	log Conditional Stability Constant (@ pH) Fe^+3 ([5]; pH 2): 13.54; log Conditional Stability Constant (@ pH) Fe^+3 ([5]; pH 3): 17.54; log Conditional Stability Constant (@ pH) Fe^+3 ([5]; pH 4): 21.52; log Conditional Stability Constant (@ pH) Fe^+3 ([5]; pH 5): 25.39; log Conditional Stability Constant (@ pH) Fe^+3 ([5]; pH 6): 28.82; log Conditional Stability Constant (@ pH) Fe^+3 ([5]; pH 7): 31.89; log Conditional Stability Constant (@ pH) Fe^+3 ([5]; pH 8): 34.85
O=C(O)CN(CCN(CC(=O)O)CC(=O)O)CCN(CC(=O)O)CC(=O)O [DTPA]	3.34	6.88	9.85	12.24	14.31	16.31	18.22	−7.26	−3.72	−0.75	1.64	3.71	5.71	7.62	21.4	16.4	10.75	–
O=C(O)CC[C@H](NCCN[C@H](CCC(=O)O)C(=O)O)C(=O)O [EDDG, ethylenediamine-N,N′-diglutaric acid]	–	–	–	–	–	–	–	–	–	–	–	–	–	–	15.15	–	2.70	–
CC(O)(P(=O)(O)O)P(=O)(O)O [HEDP]	–	–	–	–	–	–	–	–	–	–	–	–	–	–	11.84	14.1	6.0	–
O=C(O)CC[C@@H](C(=O)O)N(CC(=O)O)CC(=O)O [GLD, glutamic acid diacetic acid]	−0.42	3.32	5.75	7.33	8.45	9.47	10.47	−7.62	−3.88	−1.45	0.13	1.25	2.27	3.27	–	–	–	–

The next lines start with results.

log Conditional Stability Constant (@ pH) Cu^+2 ([1]; pH 2)	log Conditional Stability Constant (@ pH) Cu^+2 ([1]; pH 3)	log Conditional Stability Constant (@ pH) Cu^+2 ([1]; pH 4)	log Conditional Stability Constant (@ pH) Cu^+2 ([1]; pH 5)	log Conditional Stability Constant (@ pH) Cu^+2 ([1]; pH 6)	log Conditional Stability Constant (@ pH) Cu^+2 ([1]; pH 7)	log Conditional Stability Constant (@ pH) Cu^+2 ([1]; pH 8)	log Conditional Stability Constant (@ pH) Ca^+2 ([6]; pH 2)	log Conditional Stability Constant (@ pH) Ca^+2 ([6]; pH 3)	log Conditional Stability Constant (@ pH) Ca^+2 ([6]; pH 4)	log Conditional Stability Constant (@ pH) Ca^+2 ([6]; pH 5)	log Conditional Stability Constant (@ pH) Ca^+2 ([6]; pH 6)	log Conditional Stability Constant (@ pH) Ca^+2 ([6]; pH 7)	log Conditional Stability Constant (@ pH) Ca^+2 ([6]; pH 8)	Structure (SMILES)	log K Cu [2]	log K Fe [3]	log K Ca [4]	further results
−4.27	−0.37	2.99	5.40	7.45	9.43	11.21	−14.17	−10.27	−6.91	−4.50	−2.45	0.47	1.31	O=C(O)CC(NCC(O)CNC(CC(=O)O)C(=O)O)C(=O)O (centres unmarked) [HPDDS, 2-hydroxypropylendiamin-N—N′-disucinnic acid]	12.84	–	2.94	–
3.39	6.30	8.85	10.88	12.41	13.53	14.54	−5.81	−2.90	−0.35	1.68	3.21	4.33	5.34	O=C(O)CN(CCO)CCN(CC(=O)O)CC(=O)O [HEDTA]	–	–	–	–
3.80	5.84	7.08	8.11	9.11	10.11	–	−3.10	−1.06	0.18	1.21	2.21	3.21	4.21	CC(C(=O)O)N(CC(=O)O)CC(=O)O (centres unmarked) [MGDA, methylglycinediacetic acid]	–	–	–	–
